In paper PMC12523838, “Inhibition of Xanthine Oxidase by Four Phenolic Acids: Kinetic, Spectroscopic, Molecular Simulation, and Cellular Insights” (Foods, 2025):
“And” between values parts separate entries of the source, which are not always exact repeats. Equal values may be shown once. “Also recorded” adds a separate entry of the source. Read-outs that look alike come from different tables or passages of the source.

Legend:
[1] = Reducing power (potassium ferricyanide, absorbance at 700 nm); details: concentration at which absorbance at 700 nm reached 0.5
Protocol: The mixture was incubated at 50 °C for 20 min, after which 0.5 mL of 10% (,w/v) trichloroacetic acid solution was added. Following centrifugation at 3000 rpm for 10 min, 0.5 mL of the supernatant was transferred to a new test tube, and 0.5 mL of distilled water along with 0.1 mL of 0.1% (,w/v) ferric chloride solution were added. After 10 min of incubation, absorbance was measured at 700 nm. Higher absorbance values correspond to stronger reducing activity. The IC50 value was defined as the concentration at which the absorbance reached 0.5.

XOD [2] = target: T1, XOD (Bos taurus, UniProt P80457); assay: CD spectroscopy, secondary structure of XOD; parameters: species or system bovine; details: for α-helix content of XOD: XOD with phenolic acid (300 μM solution, equal volumes), XOD alone 36.70; for β-sheet content of XOD: XOD with phenolic acid, XOD alone 13.87
T1 construct: XOD (7.2 units/mL, derived from bovine milk); purchased Sigma-Aldrich (St. Louis, MO, USA); host or cells: bovine milk
Protocol: CD spectroscopy was employed to determine the conformational structure of XOD in the presence of phenolic compounds. Spectra were recorded in the wavelength range of 190–250 nm using a scanning rate of 100 nm/min, with continuous nitrogen purging at room temperature. XOD was prepared at 2.0 mg/mL in PBS (200 mM, pH 7.5) and then diluted 6-fold to 0.33 mg/mL. Phenolic compounds were dissolved in PBS at 300 μM, and equal volumes of XOD and phenolic solutions were joined in equal amounts. CD spectra of the mixtures were recorded with the PBS as the background, and secondary structure content of XOD was analyzed employing the SELCON3 algorithm on the DichroWeb server (http://dichroweb.cryst.bbk.ac.uk/html/home.shtml).
The CONTIN program was used to determine the secondary structure composition of XOD (Figure 3B).

[3] = DPPH radical scavenging activity
Protocol: The DPPH• scavenging capacity was evaluated following the method of Nakbi et al.. […] The mixture was vortexed and incubated at room temperature for 30 min. Absorbance was then measured at 517 nm and recorded as Ai. For the control experiment, 10 μL of anhydrous ethanol replaced the sample soluition, while all other steps were identical, and the absorbance was recorded as Ac. To correct for background, 10 μL of sample solution was mixed with 240 μL of anhydrous ethanol alone, and the absorbance at 517 nm was recorded as A0.

[4] = Oxygen radical absorption capacity (ORAC)
Protocol: The ORAC analysis method was adapted from Wang et al.with adjustments. The trial was conducted in 75 mM PBS (pH 7.4). […] AAPH was freshly dissolved in PBS at 38.25 mM and maintained in an ice-water bath. […] The reaction was initiated by adding 100 μL of AAPH solution, and fluorescence intensity was recorded every minute for 100 min to generate a fluorescence decay curve (Thermo Fisher Scientific, Waltham, MA, USA). Trolox served as the reference standard, while PBS functioned as the blank. ORAC values were determined from the net area under the fluorescence decay curve and expressed as Trolox equivalents per sample [22].

XOD (xanthine oxidase) [5] = target: T2, XOD (xanthine oxidase) (Bos taurus, UniProt P80457); assay: XOD inhibitory activity in vitro (enzymatic reaction, HPLC of UA); type: biochemical, bovine
Protocol: The XOD inhibitory activity of the samples was assessed using an enzymatic reaction followed by HPLC analysis. Briefly, 50 μL of XOD (0.05 U/mL in 200 mM PBS, pH 7.5) was combined with either 50 μL of PBS (control) or 50 μL of the sample solution. The reaction mixture was equilibrated at 37 °C for 5 min, after which 150 μL of 0.40 mM xanthine was added. The reaction proceeded at 37 °C for 10 min and was terminated by adding 80 μL of 1.0 M HCl.
UA production was measured using an HPLC system (Agilent Technologies, Santa Clara, CA, USA) equipped with a UV detector. The reaction solution was diluted 20-fold and filtered, and 10 μL of the filtrate was injected into an Agilent Eclipse XDB-C18 column (150 × 4.6 mm, 5 μm). The mobile phase, consisting of 10% methanol and 90% 10 mM sodium phosphate buffer (pH 5.5), was delivered isocratically at 1.0 mL/min. UA was detected at 292 nm with the column maintained at 25 °C. Concentrations were calculated based on an external calibration curve. XOD inhibition was expressed as the percentage reduction of UA formation, and the IC50 value was defined as the sample concentration at which 50% inhibition was achieved.

XOD [6] = target: T1, XOD; assay: Fluorescence quenching of XOD (Stern-Volmer); type: binding, bovine; details: for Kq (quenching rate constant) / n (number of binding sites): 298 K
Protocol: In brief, 100 µL of XOD (0.05 U/mL in 200 mM PBS, pH 7.5) was combined with 100 µL of each phenolic acid at final concentrations of 0, 50, 100, 200, 300, 400, and 500 μM. The mixtures were incubated at 25 °C for 10 min, and fluorescence emission spectra were recorded using a microplate reader (Thermo Fisher Scientific, Waltham, MA, USA) with an excitation wavelength of 280 nm and an emission collected from 310 to 500 nm. PBS was used as the blank, and background fluorescence was subtracted to ensure accuracy.
The binding mechanisms of FA, CA, GA, and PA to XOD were investigated using the fluorescence quenching method at seven different concentrations.
F0 and F denote the fluorescence intensities of XOD in the absence and presence of quenchers (FA, CA, GA, and PA), respectively. The quenching constant (Ksv) is, obtained from the linear fitting of F0/F against the quencher concentration [Q]. The quenching rate constant is expressed as Kq, while τ0 represents the average lifetime of the fluorophore in the absence of a quencher (typically 10^−9 s). The effective quenching constant of the accessible fluorophore is designated as Ka, and fa corresponds to the fraction of fluorescence accessible to quenching. The binding constant is indicated by K, and n stands for the number of binding sites.

XOD (xanthine oxidase) [7] = target: T2, XOD (xanthine oxidase); assay: Kinetic mechanisms of XOD inhibition (Lineweaver-Burk); type: biochemical, bovine; details: for Inhibition types: Lineweaver-Burk plots; for Kis (inhibition constant for the XOD-substrate complex): mixed inhibition model; for Ki: read-out: Ki (inhibition constant for XOD)
Protocol: The inhibition kinetics of XOD by FA, CA, GA, and PA were evaluated using Lineweaver–Burk plots. The inhibitor concentrations were as follows: FA (0, 2.0, 3.0, and 4.0 mM), CA (0, 1.0, 2.0, and 4.0 mM), GA (0.2, 1.0, 2.0, and 4.0 mM), and PA (1.0, 2.0, 5.0, and 10.0 mM). The substrate (xanthine) concentrations were fixed at 0.1, 0.2, 0.3, and 0.4 mM. XOD (0.05 U/mL) was used, and the initial reaction velocity (v) was calculated based on UA formation.
Lineweaver–Burk plots were established by plotting 1/v against 1/[s] for each inhibitor concentration. Four linear regressions were obtained for each inhibitor, enabling the determination of the inhibition type. […] The slope and intercept of the Lineweaver–Burk plot were plotted against inhibitor concentration [I], yielding the following equations: (3) and (4).
V denotes the reaction rate, Vmax the maximum rate, Km the Michaelis constant, Ki the inhibition constant for XOD, and Kis the inhibition constant for the XOD–substrate complex. Decreased Ki or Kis values indicate stronger inhibitory activity.

BRL-3a cells = assay: UA levels in xanthine-treated BRL-3A cells; type: cell-based; details: vs model group
Protocol: UA levels were measured following the method of Liu et al.. […] After 48 h of incubation, supernatants were collected, spun at 1000× g for 5 min, then the UA level was quantified with the UA assay kit.

[8] = ABTS radical scavenging activity
Protocol: The modified ABTS assay was carried out as described by Foss et al. with appropriate modifications. A 7 mM ABTS solution was mixed in equal volumes with 2.45 mM potassium persulfate and kept in the dark at room temperature for 12–16 h to generate the ABTS•^+ stock solution. […] Absorbance was recorded at 734 nm. PBS served as the blank, while Trolox was used as the standard. The results were reported as IC50 value, representing the concentration of sample required to scavenge 50% of ABTS•^+ radicals.

[9] = XOD 0.05 U/mL, 0.40 mM xanthine, 37 °C, pH 7.5, read-out: IC50 of XOD inhibitory activity

T1 sequence (P80457 whole entry): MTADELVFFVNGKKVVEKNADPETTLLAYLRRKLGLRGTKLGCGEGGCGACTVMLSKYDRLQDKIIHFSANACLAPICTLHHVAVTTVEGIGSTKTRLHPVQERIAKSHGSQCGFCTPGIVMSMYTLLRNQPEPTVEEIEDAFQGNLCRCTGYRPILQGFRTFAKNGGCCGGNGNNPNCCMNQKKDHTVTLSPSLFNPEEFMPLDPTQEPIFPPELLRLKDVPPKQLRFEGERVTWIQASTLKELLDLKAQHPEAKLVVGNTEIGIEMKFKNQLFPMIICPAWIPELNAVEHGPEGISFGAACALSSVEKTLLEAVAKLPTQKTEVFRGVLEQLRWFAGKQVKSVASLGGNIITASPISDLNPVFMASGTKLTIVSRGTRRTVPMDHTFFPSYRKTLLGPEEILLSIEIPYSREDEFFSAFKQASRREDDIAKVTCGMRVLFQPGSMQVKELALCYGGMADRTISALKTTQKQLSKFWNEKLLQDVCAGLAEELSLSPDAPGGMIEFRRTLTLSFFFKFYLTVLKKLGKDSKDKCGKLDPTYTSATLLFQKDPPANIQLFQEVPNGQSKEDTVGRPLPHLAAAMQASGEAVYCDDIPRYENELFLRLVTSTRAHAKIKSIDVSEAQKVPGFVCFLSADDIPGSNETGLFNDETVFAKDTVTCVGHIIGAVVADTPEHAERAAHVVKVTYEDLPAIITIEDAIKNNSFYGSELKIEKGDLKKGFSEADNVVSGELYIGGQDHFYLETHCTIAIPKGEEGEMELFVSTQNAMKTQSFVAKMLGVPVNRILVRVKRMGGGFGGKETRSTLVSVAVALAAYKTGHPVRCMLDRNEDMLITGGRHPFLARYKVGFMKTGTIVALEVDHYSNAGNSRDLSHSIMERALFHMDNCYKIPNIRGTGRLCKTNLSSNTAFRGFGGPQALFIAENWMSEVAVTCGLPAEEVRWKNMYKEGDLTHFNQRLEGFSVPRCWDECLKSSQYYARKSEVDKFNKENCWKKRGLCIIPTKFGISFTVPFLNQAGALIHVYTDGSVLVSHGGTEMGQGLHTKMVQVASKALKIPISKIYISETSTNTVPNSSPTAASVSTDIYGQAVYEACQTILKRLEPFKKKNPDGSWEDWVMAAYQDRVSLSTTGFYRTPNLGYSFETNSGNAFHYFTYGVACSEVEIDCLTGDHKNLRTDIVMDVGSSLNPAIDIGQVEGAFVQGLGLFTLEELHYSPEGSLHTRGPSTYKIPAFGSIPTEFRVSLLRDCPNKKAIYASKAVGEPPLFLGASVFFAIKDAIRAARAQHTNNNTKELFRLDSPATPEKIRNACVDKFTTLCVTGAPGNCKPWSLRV
T2 sequence (P80457 whole entry): as above

Row | SMILES | Reducing Power [1] | α-helix content of XOD (XOD [2]) | β-sheet content of XOD (XOD [2]) | IC50 [3] | ORAC Value ([4]; Trolox equivalents) | IC50 (XOD (xanthine oxidase) [5]; [9]) | Kd (XOD [6]) | Kq (quenching rate constant) (XOD [6]) | n (number of binding sites) (XOD [6]) | Inhibition types (XOD (xanthine oxidase) [7]) | Vmax (XOD (xanthine oxidase) [7]; inhibitor 2.0 mM) | Vmax (XOD (xanthine oxidase) [7]; inhibitor 4.0 mM) | Kis (inhibition constant for the XOD-substrate complex) (XOD (xanthine oxidase) [7]) | Ki (XOD (xanthine oxidase) [7]) | IC50 [8] | Vmax (XOD (xanthine oxidase) [7]; inhibitor 1.0 mM) | other results
1 | COc1cc(/C=C/C(=O)O)ccc1O [Ferulic acid, ferulic acid] | 0.74 ± 0.05 c mM | 36.37% | 14.07% | 800 ± 30 µM | 7.99 ± 0.24 c mmol TE/mmol | 2040 ± 110 µM | 7140 µM | 0.16 ± 0.01 1012 L*mol-1*s-1 | 0.70 ± 0.01 | Mixed inhibition | 1.39 mM/min | 0.95 mM/min | 1.78 mM | 890 µM | 300 µM | – | Inhibition types (XOD (xanthine oxidase) [7]; listed as FA): mixed inhibition with competitive dominance; Vmax (XOD (xanthine oxidase) [7]; inhibitor 3.0 mM): 1.04 mM/min; UA levels (BRL-3a cells; 25–100 μM, 1 mM xanthine, 48 h, p < 0.05, listed as FA): significantly reduced uric acid (UA) concentration; also recorded: significantly reduced UA levels
2 | O=C(O)c1cc(O)c(O)c(O)c1 [Gallic acid, gallic acid] | 0.20 ± 0.01 mM·days | 37.33% | 13.30% | 180 ± 10 µM | 20.12 ± 0.74 a mmol TE/mmol | – | 139 µM | 0.26 ± 0.01 1012 L*mol-1*s-1 | 1.13 ± 0.00 | Mixed inhibition | 4.72 mM/min | 3.61 mM/min | 3.05 mM | – | 20 µM | 4.83 mM/min | Reducing Power ([1]; listed as GA): 0.20 ± 0.01 mM; ORAC Value [4]: 20.12 ± 0.74 mM; IC50 (XOD (xanthine oxidase) [5]): 870 ± 30 µM; inhibitory efficacy of GA relative to PA (XOD IC50) (XOD (xanthine oxidase) [5]; GA vs PA): approximately 14.62 fold; Inhibition types (XOD (xanthine oxidase) [7]; listed as GA): mixed but predominantly non-competitive inhibition; Vmax (XOD (xanthine oxidase) [7]; inhibitor 0.2 mM): 4.90 mM/min; UA levels (BRL-3a cells; 25 μM, 1 mM xanthine, 48 h, listed as GA): significantly reduced UA levels
3 | O=C(O)c1ccc(O)c(O)c1 [Protocatechuic acid, protocatechuic acid] | 0.12 ± 0.01 mM·days | 35.77% | 14.47% | 620 µM | 6.63 ± 0.09 d mmol TE/mmol | 12700 ± 670 µM | 719 µM | 0.18 ± 0.01 1012 L*mol-1*s-1 | 0.98 ± 0.02 | Mixed inhibition | 0.72 mM/min | – | 17.76 mM | 3210 µM | 400 ± 20 µM | 0.79 mM/min | Reducing Power ([1]; listed as PA): 0.12 ± 0.01 mM; Inhibition types (XOD (xanthine oxidase) [7]; listed as PA): mixed inhibition with competitive dominance; Vmax (XOD (xanthine oxidase) [7]; inhibitor 5.0 mM): 0.69 mM/min; Vmax (XOD (xanthine oxidase) [7]; inhibitor 10.0 mM): 0.68 mM/min; UA levels (BRL-3a cells; 25–100 μM, 1 mM xanthine, 48 h, p < 0.05, listed as PA): significantly reduced uric acid (UA) concentration; also recorded: significantly reduced UA levels
4 | Cc1c(C)c2c(c(C)c1O)CCC(C)(C(=O)O)O2 (stereo not drawn) [Trolox, 6-Hydroxy-2,5,7,8-tetramethylchromane-2-carboxylic acid, reference compound] | 2.62 ± 0.20 mM and 2.62 ± 0.20 b (Trolox) mM | – | – | 680 ± 10 µM | – | – | – | – | – | – | – | – | – | – | 3410 ± 120 µM | – | –
5 | Oc1ncnc2[nH]ncc12 [allopurinol, reference compound] | – | – | – | – | – | – | – | – | – | – | – | – | – | – | – | – | UA levels (BRL-3a cells; positive control, p < 0.05): significantly lower UA levels
6 | O=C(O)/C=C/c1ccc(O)cc1 [p-Coumaric acid, p-coumaric acid] | 6.98 ± 0.13 a mM | 36.20% | 14.70% | 19400 ± 1240 µM | 9.64 ± 0.27 b mmol TE/mmol | 7610 ± 300 µM | 99.9 ± 4.49 µM | 0.91 ± 0.01 1012 L*mol-1*s-1 | 1.01 ± 0.00 | Mixed inhibition | 0.74 mM/min | 0.68 mM/min | 6.04 mM | 1420 µM | 230 ± 10 µM | 0.79 mM/min | Inhibition types (XOD (xanthine oxidase) [7]; listed as CA): mixed inhibition with competitive dominance; UA levels (BRL-3a cells; 25–100 μM, 1 mM xanthine, 48 h, p < 0.05, listed as CA): significantly reduced uric acid (UA) concentration; also recorded: significantly reduced UA levels
